In patent EP3505527A1, “CYCLIC DINUCLEOTIDES FOR CYTOKINE INDUCTION” (Invivogen, priority 2017, dated 2019):
Read-outs that look alike come from different tables or passages of the source.

Legend:
RAW-Difluo™ mLC3 Cells = assay: Autophagy induction (puncta formation) in RAW-Difluo mLC3 reporter cells; format: cell-based, murine; conditions: 8 hours
Procedure: The ability of the CDNs of the present invention, to activate STING-dependent autophagy induction was measured using the murine autophagy reporter cell line obtained directly from InvivoGen.
RAW-Difluo™ mLC3 Cells are autophagy reporter cells derived from the murine RAW 264.7 macrophage cell line, a physiologically relevant cell line. They express an RFP::GFP::LC3 fusion protein, RFP-GFP-LC3, in which the N-terminus of murine LC3 is fused to two fluorescent reporter proteins: a RFP (acid-stable) and a GFP (acid-sensitive). In these cells, the RFP-GFP pair enables monitoring of autophagic flux in real time by detecting the appearance of green (GFP-LC3) and/or red (RFP-LC3) puncta by fluorescence microscopy.
Approximately 50,000 cells (500 µL) per well of 24-well plates were seeded 24 h before treatment. The next day, the cells were treated either with a solution containing a CDN at one of three different concentrations (1 µg/mL, 3 µg/mL or 10 µg/mL) or with Rapamycin at 25 µM, or were left untreated. The plates were incubated at 37 °C in a CO2 incubator for 8 hours. Fluorescence intensity and puncta formation was monitored at λexc = 480 nm and λem = 505 nm.

[1] = test system: B16 (murine melanoma tumor cell line); assay: Murine subcutaneous B16 melanoma model, i.t. monotherapy; format: in vivo, mouse
Source text: • Species evaluated: mouse • Tumor model: B16 (murine melanoma tumor cell line) • Treatments tested: CL742 and CL747 (monotherapy) • Clinical parameters evaluated: tumor volume • Administration routes evaluated: intratumoral (i.t.) injection
On Day 1, 15 mice (C57BL/6; male) received a subcutaneous injection of B16 tumor cells (1 x 105) on the right flank. On Day 13, the mice were then divided into two groups of five each (treated groups) and one group of five (control group). Each group received a different treatment, as outlined below: • Group 1 (control): saline (i.t. injection) at days 13 16 and 20; • Group 2: CL742 at 1.25 mg/Kg (i.t. injection) at days 13 16 and 20; • Group 3: CL747 at 1.25 mg/Kg (i.t. injection) at days 13 16 and 20
The tumor volume and animal weight were monitored every 2 days and animals were euthanized at Day 28 (Figure 11).

[2] = test system: Panc02 (murine pancreatic tumor cell line); assay: Murine orthotopic Panc02 pancreatic cancer model, i.p. monotherapy; format: in vivo, mouse; conditions: for final mean tumor volume: Panc02, 1 mg/Kg i.p. once daily, 4 days a week for 3 weeks; for final mean tumor volume / incidence of metastasis: day 28; for tumor growth / incidence of metastasis: Panc02, 1 mg/Kg i.p.; for tumor growth: compared with control group
Source text: • Species evaluated: mouse • Tumor model: Panc02 (murine pancreatic tumor cell line) • Treatments tested: CL735 and CL742 (monotherapy) • Clinical parameters evaluated: tumor volume, tumor weight and incidence of metastasis • Administration routes evaluated: intraperitoneal (i.p.) injection
On Day 1, […] (C57BL/6; male) received an orthotopic injection of Panc02 tumor cells (1 x 106) in the pancreas. On Day 8, the mice were then divided into two groups of eight each (treated groups) and one group of five (control group). Each group received a different treatment, as outlined below: • Group 1 (control): saline (by i.p. injection) once daily, 4 days a week for 3 weeks; • Group 2: CL735 at 1 mg/Kg (by i.p. injection) once daily, 4 days a week for 3 weeks; • Group 3: CL742 at 1 mg/Kg (by i.p. injection) once daily, 4 days a week for 3 weeks
Left: Weight of individual Panc02 tumors at day 28 by treatment group. Right: Mean tumor weight at day 28, sd and sem for each group. • Figure 9. Left: Volume of individual Panc02 tumors at day 28 by treatment group. Right: Mean tumor volume at day 28, sd and sem for each group. • Figure 10. Incidence of metastasis in a murine model of Panc02 tumors. The mice were treated with saline (control), CL735 or CL742 monotherapies and metastases number was recorded at day 28. On the right, table indicated the mean of metastases number on animals that have survived by day 28, sd and sem for each group.

IRF pathway [3] = molecular target: T1, IRF pathway (Homo sapiens, UniProt Q86WV6); assay: ISG54 reporter assay in THP-1-Dual KO-STING cells; format: cell-based; conditions: THP1-Dual KO-STING cells (Figures 2A and 2B)
T1 sequence (Q86WV6 whole entry): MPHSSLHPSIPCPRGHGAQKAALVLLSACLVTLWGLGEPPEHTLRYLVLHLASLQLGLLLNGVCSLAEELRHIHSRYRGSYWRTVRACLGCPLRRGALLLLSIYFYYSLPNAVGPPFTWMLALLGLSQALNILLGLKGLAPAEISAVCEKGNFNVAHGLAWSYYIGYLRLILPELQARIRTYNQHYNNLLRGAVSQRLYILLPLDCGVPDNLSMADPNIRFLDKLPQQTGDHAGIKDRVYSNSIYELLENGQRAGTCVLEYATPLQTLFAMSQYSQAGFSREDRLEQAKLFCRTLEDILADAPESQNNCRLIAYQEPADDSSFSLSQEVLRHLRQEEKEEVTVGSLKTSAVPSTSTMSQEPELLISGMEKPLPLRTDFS
Source text: THP-1-Dual™-KO-STING (InvivoGen catalog code: thpd-kostg): These cells were generated from the human monocyte THP-1-Dual™, through stable homozygote knockout of the STING gene. Bialielic STING knockout was verified by functional assays, PCR and DNA sequencing.

STING = assay: STING-dependent cytokine induction, overall activity in words (THP1 Dual in vitro and whole blood ex vivo, Tables 2 to 4); format: cell-based, human; conditions: comment on Tables 2 and 3
Source text: (§1) . The ex vivo (whole blood assay) cytokine-induction activity of a representative set these cyclic dinucleotides is reported here with the same protocol described in Example 2.2.
as §1, §1

NF-κB pathway = NF-κB pathway (Homo sapiens, UniProt Q86WV6); assay: NF-κB SEAP reporter assay in THP1 Dual cells; format: cell-based
NF-κB pathway, sequence (Q86WV6 whole entry): as above

IRF pathway [4] = molecular target: T1, IRF pathway; assay: ISG54 (IRF pathway) Lucia reporter assay in THP-1-Dual cells, Type I IFN induction; format: cell-based
Source text: The IRF pathway has been investigated by using the two following ISG reporter cell lines obtained directly from InvivoGen. They are described here and provided with their corresponding InvivoGen catalog code.

Compound	Autophagy level (RAW-Difluo™ mLC3 Cells; 1 µg/mL)	Autophagy level (RAW-Difluo™ mLC3 Cells; 3 µg/mL)	Autophagy level (RAW-Difluo™ mLC3 Cells; 10 µg/mL)	activity (ranking between compounds) (STING)	other results
CO[C@H]1C[C@@H]2CC[C@@H](C)[C@@](O)(O2)C(=O)C(=O)N2CCCC[C@H]2C(=O)O[C@H]([C@H](C)C[C@@H]2CC[C@@H](O)[C@H](OC)C2)CC(=O)[C@H](C)/C=C(\C)[C@@H](O)[C@@H](OC)C(=O)[C@H](C)C[C@H](C)/C=C/C=C/C=C/1C [Rapamycin, reference compound]					Autophagy level (RAW-Difluo™ mLC3 Cells; 25 µM): ++++ (90% of cells have puncta)
O=c1[nH]cnc2c1ncn2[C@@H]1O[C@@H]2COP(=O)(O)O[C@@H]3[C@@H](F)[C@@H](COP(=O)(O)O[C@H]2[C@H]1F)O[C@H]3n1cnc2c(=O)[nH]cnc21 [CL742, (2',3')c-[3'F3'XylodIMP-2'FdIMP]]	+/- (10% of cells have puncta)	+/- (10% of cells have puncta)	+ (25% of cells have puncta)		mean tumor volume ([1]; B16, 1.25 mg/Kg i.t. at days 13 16 and 20, day 20): 779 +/- 816 mm3; tumor growth ([1]; B16, 1.25 mg/Kg i.t., compared with control group): significant reduction in tumor growth; final mean tumor volume [2]: 47 +/- 29 mm3; tumor growth [2]: significant reduction in tumor growth; incidence of metastasis [2]: no metastases were found; production of Type I interferons (IRF pathway [3]): did not induced production of Type I interferons
Nc1nc(Cl)nc2c1ncn2[C@H]1C[C@@H]2OP(=O)(O)OC[C@H]3O[C@@H](n4cnc5c(=O)[nH]cnc54)[C@H](F)[C@@H]3OP(=O)(O)OC[C@H]2O1 [CL761, (3'3')c-(2CIdAMP-2'FdIMP)]				CL761 < CL760	
Nc1ncnc2c1ncn2[C@@H]1O[C@@H]2COP(=O)(O)O[C@@H]3[C@@H](F)[C@@H](COP(=O)(S)O[C@H]2[C@H]1F)O[C@H]3n1cnc2c(N)ncnc21 (some centres unmarked) [CL714, (2',3')c-[xylo3'F3'dAM(PS)-2'FdAMP]]				CL714 > CL766	EC50 (NF-κB pathway; NFκB read-out): 14.6 µM; EC50 (IRF pathway [4]; THP1 Dual cells, ISG read-out): 4.84 µM
O=c1[nH]cnc2c1ncn2[C@@H]1O[C@@H]2COP(=O)(O)O[C@H]3[C@@H](F)[C@H](n4cnc5c(=O)[nH]cnc54)O[C@@H]3COP(=O)(O)O[C@H]2[C@H]1F [CL626, reference compound]	++ (50% of cells have puncta)	++ (50% of cells have puncta)	++ (50% of cells have puncta)		
CC(C)(C)C(=O)OCSP1(=O)OC[C@H]2O[C@@H](n3cnc4c(=O)[nH]cnc43)[C@H](OP(=O)(O)OC[C@H]3O[C@@H](n4cnc5c(N)ncnc54)[C@H](F)[C@@H]3O1)[C@H]2F (some centres unmarked) [CL784, (2',3')c-[3'F3'XylodIMP-2'FdAM(PS-POM)]]				CL784 > CL781	
(2',3')c-[3'F3'XylodIM(PS)-2'FdI(POM)MP] [CL746]	++ (50% of cells have puncta)	++ (50% of cells have puncta)	++ (50% of cells have puncta)		
O=c1[nH]cnc2c1ncn2[C@@H]1O[C@@H]2COP(=O)(S)O[C@H]3[C@@H](F)[C@H](n4cnc5c(=O)[nH]cnc54)O[C@@H]3COP(=O)(S)O[C@H]2[C@H]1F (stereo partly drawn) [CL735, c-di[2'FdIMP(S)]]	++ (50% of cells have puncta)	++ (50% of cells have puncta)	++ (50% of cells have puncta)		final mean tumor volume [2]: 150 +/- 69 mm3; tumor growth [2]: significant reduction in tumor growth; incidence of metastasis [2]: no metastases were found; production of Type I interferons (IRF pathway [3]): did not induced production of Type I interferons
CC(C)(C)C(=O)OCn1cnc2c(ncn2[C@@H]2O[C@@H]3COP(=O)(O)O[C@H]4C[C@H](n5cnc6c(N)nc(Cl)nc65)O[C@@H]4COP(=O)(O)O[C@H]3[C@H]2F)c1=O [CL762, (3'3')c-[2CIdAMP-2'FdI(POM)MP]]				CL762 < CL760	
CC(C)(C)C(=O)OCSP1(=O)OC[C@H]2O[C@@H](n3cnc4c(N)ncnc43)[C@H](F)[C@@H]2OP(=O)(SCOC(=O)C(C)(C)C)OC[C@H]2O[C@@H](n3cnc4c(=O)[nH]c(N)nc43)[C@H](O1)[C@H]2F (some centres unmarked) [CL751, (2',3')c-[3'F3'XylodGM(PS-POM)-2'FdAM(PS-POM)]]					EC50 (NF-κB pathway; read-out: EC50 THP1 Dual NFκB): 2.51 µM; EC50 (IRF pathway [4]; read-out: EC50 THP1 Dual ISG): 0.93 µM
Nc1ncnc2c1ncn2[C@@H]1O[C@@H]2COP(=O)(O)O[C@@H]3[C@@H](F)[C@@H](COP(=O)(S)O[C@H]2[C@H]1F)O[C@H]3n1cnc2c(=O)[nH]cnc21 (some centres unmarked) [CL781, (2',3')c-[3'F3'XylodIMP-2'FdAM(PS)]]				CL781 >> CL764	
Nc1ncnc2c1ncn2[C@@H]1O[C@@H]2COP(=O)(O)O[C@@H]3[C@@H](F)[C@@H](COP(=O)(O)O[C@H]2[C@H]1F)O[C@H]3n1cnc2c(N)ncnc21 [CL710, (2',3')c-[xylo3'F3'dAMP-2'FdAMP]]					EC50 (NF-κB pathway; NFκB read-out): > 50 µM; EC50 (IRF pathway [4]; THP1 Dual cells, ISG read-out): > 50 µM
CC(C)(C)C(=O)OCSP1(=O)OC[C@H]2O[C@@H](n3cnc4c(N)ncnc43)[C@H](F)[C@@H]2OP(=O)(SCOC(=O)C(C)(C)C)OC[C@H]2O[C@@H](n3cnc4c(N)ncnc43)[C@H](O1)[C@H]2F (some centres unmarked) [CL760, (2',3')c-[xylo3'F3'dAM(PS-POM)-2'FdAM(PS-POM)]]					EC50 (NF-κB pathway; read-out: EC50 THP1 Dual NFκB): 1.76 µM; EC50 (IRF pathway [4]; read-out: EC50 THP1 Dual ISG): 0.33 µM
O=c1[nH]cnc2c1ncn2[C@@H]1O[C@@H]2COP(=O)(O)O[C@H]3[C@@H](O)[C@H](n4cnc5c(=O)[nH]cnc54)O[C@@H]3COP(=O)(O)O[C@H]2[C@H]1O [cdiIMP, reference compound]	+ (25% of cells have puncta)	++ (50% of cells have puncta)	+++ (75% of cells have puncta)		
Nc1ncnc2c1ncn2[C@@H]1O[C@@H]2COP(=O)(S)O[C@@H]3[C@@H](F)[C@@H](COP(=O)(S)O[C@H]2[C@H]1F)O[C@H]3n1cnc2c(N)ncnc21 (some centres unmarked) [CL766, (2',3')c-[xylo 3'F3'dAM(PS)-2'FdAM(PS)]]					EC50 (NF-κB pathway; NFκB read-out): > 50 µM; EC50 (IRF pathway [4]; THP1 Dual cells, ISG read-out): > 50 µM
CC(C)(C)C(=O)OCn1cnc2c(ncn2[C@@H]2O[C@@H]3COP(=O)(O)O[C@H]4[C@@H](F)[C@H](n5cnc6c(=O)[nH]cnc65)O[C@@H]4COP(=O)(O)O[C@H]3[C@H]2F)c1=O [CL733, c-[2'FdI(POM)MP-2'FdIMP]]	+/- (10% of cells have puncta)	+/- (10% of cells have puncta)	+ (25% of cells have puncta)		
